Test results published in patent JP2015013808A, “G2/m期停止及び細胞死を誘導するベンゾヒドラジド誘導体” (Kyushu University NUC, priority 2011, dated 2013).
Read-outs that look alike come from different tables or passages of the source.

Assays:
[1] = system: HFF2/T cells (normal human fibroblast line immortalized by introduction of human telomerase) [HFF2/T細胞(ヒトテロメラーゼの導入により不死化した正常ヒト線維芽細胞株)]; experiment: MTS growth inhibition assay, HFF2/T normal fibroblasts; format: cell-based; settings: 48 h
[2] = system: human cancer cells [ヒトがん細胞]; experiment: Growth inhibition / cytotoxicity in cancer cell lines (summary over lines); format: cell-based; settings: for anticancer activity / inhibitory effect on cancer cell lines (in words): 48 h, MTS; for cancer cell selectivity of growth inhibition and cytotoxicity (in words): cancer cells versus normal fibroblasts
[3] = system: human cancer cells [ヒトがん細胞]; experiment: FACS cell cycle analysis (summary, cell line not specified); format: cell-based
[4] = system: HeLa cells (cervical cancer-derived cell line) [HeLa細胞(子宮頸癌由株細胞株)]; experiment: MTS growth inhibition assay, HeLa; format: cell-based, human; settings: 48 h
[5] = system: H1299 cells (lung cancer-derived cell line) [H1299細胞(肺がん由来細胞株)]; experiment: MTS growth inhibition assay, H1299; format: cell-based, human; settings: 48 h
[6] = system: T98G cells (glioblastoma-derived cell line) [T98G細胞(グリオブラストーマ由来細胞株)]; experiment: MTS growth inhibition assay, T98G; format: cell-based, human; settings: 48 h
[7] = system: T98G cells [T98G細胞]; experiment: FACS cell cycle analysis, T98G; format: cell-based, human; settings: 10 μM, 24 h
[8] = system: HFF2/T cells [HFF2/T細胞]; experiment: FACS cell cycle analysis, HFF2/T normal fibroblasts; format: cell-based, human; settings: 10 μM, 24 h
[9] = molecular target: T1, Cdt1-geminin binding [Cdt1-geminin結合] (Homo sapiens, UniProt O75496+Q9H211); experiment: In vitro Cdt1-geminin binding inhibition assay (modified ELISA)
T1 construct: made in house
T1 sequence (Q9H211 1-546): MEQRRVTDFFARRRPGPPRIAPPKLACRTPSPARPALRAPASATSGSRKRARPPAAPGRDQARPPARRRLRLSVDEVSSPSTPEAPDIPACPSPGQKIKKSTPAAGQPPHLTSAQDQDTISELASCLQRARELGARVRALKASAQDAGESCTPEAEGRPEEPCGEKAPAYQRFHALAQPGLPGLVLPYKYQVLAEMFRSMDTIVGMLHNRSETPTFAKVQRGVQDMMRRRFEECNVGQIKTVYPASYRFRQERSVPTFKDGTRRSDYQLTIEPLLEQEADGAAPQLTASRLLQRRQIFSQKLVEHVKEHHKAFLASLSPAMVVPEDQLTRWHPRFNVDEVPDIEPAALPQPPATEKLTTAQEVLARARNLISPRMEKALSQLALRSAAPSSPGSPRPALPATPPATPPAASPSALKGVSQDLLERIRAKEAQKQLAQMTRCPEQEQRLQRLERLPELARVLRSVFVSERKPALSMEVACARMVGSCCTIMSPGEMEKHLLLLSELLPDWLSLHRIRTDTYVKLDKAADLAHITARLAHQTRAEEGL
T1 sequence (O75496 1-209): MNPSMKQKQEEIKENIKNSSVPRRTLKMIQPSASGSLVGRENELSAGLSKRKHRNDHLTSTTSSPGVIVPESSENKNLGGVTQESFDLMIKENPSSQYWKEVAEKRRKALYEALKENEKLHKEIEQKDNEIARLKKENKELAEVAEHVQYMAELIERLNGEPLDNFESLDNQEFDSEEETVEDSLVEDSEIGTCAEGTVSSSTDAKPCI

For CCn1c2ccccc2c2cc(/C=N/NC(=O)c3ccccc3C)ccc21 [HND-007, (E)-N'-((9-Ethyl-9H-carbazol-3-yl)methylene)-2-methylbenzohydrazide], the “growth inhibition / toxicity toward normal fibroblasts or normal cells (in words)” value [1] was “正常線維芽細胞に対しても高い毒性を示す”, the “growth inhibition / toxicity toward normal fibroblasts or normal cells (in words)” value ([1]; listed as 2- methyl体) was “正常細胞に対しても高い毒性を示す場合がある” and the “anticancer activity / inhibitory effect on cancer cell lines (in words)” value (shortened to “anticancer activity / inhibitory effect”) ([2]; listed as 2- methyl体) was “がん細胞株に対する抑制効果を高める”. For the same compound, the “anticancer activity / inhibitory effect” value ([2]; listed as (E)-N'-((9-エチル-9H-カルバゾール-3-イル)メチレン)-2-メチルベンゾヒドラジド) was “殺細胞性が高い”, the “cancer cell selectivity of growth inhibition and cytotoxicity (in words)” value [2] was “選択性は低く” and the “cell cycle phase inhibited” value [3] was “主にM期の進行阻害を行っているものと予想される”.

CCn1c2ccccc2c2cc(/C=N/NC(=O)c3cccc(I)c3)ccc21 [NP-13, (E)-N'-((9-Ethyl-9H-carbazol-3-yl)methylene)-3-iodobenzohydrazide] was tested, and the “anticancer activity / inhibitory effect” value [2] was “抗がん活性を失ってしまう” and the “anticancer activity / inhibitory effect” value ([2]; listed as 3-iodo体) was “抗がん活性が比較的低く”.

For CCn1c2ccccc2c2cc(/C=N/NC(=O)c3ccccc3I)ccc21 [NP-10, (E)-N'-((9-Ethyl-9H-carbazol-3-yl)methylene)-2-iodobenzohydrazide], the “50% growth inhibitory concentration” value [4] was “数”, the “50% growth inhibitory concentration” value [5] was “数” and the “50% growth inhibitory concentration” value [6] was “数”. For the same compound, the “concentration needed for 50% growth inhibition of HFF2/T relative to HeLa” value ([1]; HFF2/T versus HeLa) was ~10 fold, the “growth inhibition / toxicity toward normal fibroblasts or normal cells (in words)” value [1] was “正常線維芽細胞に対する増殖抑制効果は低い” and the “effect on cell cycle” value [7] was “主にS期で停止”. The “effect on cell cycle progression” value [8] was “細胞周期進行に影響を与えなかった”, the “effect on cell cycle progression” value ([8]; listed as 2-iodo体) was “正常細胞の細胞周期の進行に影響を与えず” and the “Cdt1-geminin binding inhibitory activity (in words)” value [9] was “Cdt1-geminin結合の阻害活性は示さない”. The “cancer cell selectivity of growth inhibition and cytotoxicity (in words)” value [2] was “がん細胞選択的に細胞増殖を阻害し、細胞毒性を発揮した”, the “cancer cell selectivity of growth inhibition and cytotoxicity (in words)” value ([2]; listed as 2-iodo体) was “がん細胞選択的に細胞増殖を阻害し、細胞毒性を発揮する” and the “cancer cell selectivity of growth inhibition and cytotoxicity (in words)” value ([2]; listed as 2-ヨード体) was “がん細胞に対して選択的に毒性を発揮する”. The “concentration that inhibits growth of human cancer cells” value ([2]; human cancer cells, lines not specified) was “数”, the cell death ([2]; human cancer cells, several μM) was “細胞死” and the “cell cycle phase inhibited” value [3] was “主にM期の進行阻害”. The “cell cycle phase inhibited” value ([3]; listed as 2-iodo体) was “主にM期の進行阻害”.

In the case of NNC(=O)c1ccccc1I [Y-R2, 2-iodobenzohydrazide, reference compound], the “cancer cell selectivity of growth inhibition and cytotoxicity (in words)” value [2] is reported as “そのような効果は認められなかった”.

CCn1c2ccccc2c2cc(/C=N/NC(=O)c3ccc(I)cc3)ccc21 [NP-14, (E)-N'-((9-Ethyl-9H-carbazol-3-yl)methylene)-4-iodobenzohydrazide] was tested, and the “growth inhibition / toxicity toward normal fibroblasts or normal cells (in words)” value [1] was “正常線維芽細胞に対しても高い毒性を示す”, the “growth inhibition / toxicity toward normal fibroblasts or normal cells (in words)” value ([1]; listed as 4-iodo体) was “正常線維芽細胞に対しても高い毒性を示しうる” and the “Cdt1-geminin binding inhibitory activity (in words)” value ([9]; listed as 4-iodo体) was “Cdt1-gemininの試験管内での結合を阻害しうる”. The “Cdt1-geminin binding inhibitory activity (in words)” value ([9]; listed as 4-ヨード体) was “Cdt1-geminin結合阻害活性を持ち”, the IC50 ([9]; read-out: 50% binding inhibitory concentration, Cdt1-geminin) was ~40 µM and the “anticancer activity / inhibitory effect” value [2] was “NP-10と同等あるいはより高い抗がん活性を示す”. The “anticancer activity / inhibitory effect” value ([2]; listed as 4-iodo体) was 2-iodo体と同等、あるいはより高い抗がん活性を示す, the “anticancer activity / inhibitory effect” value ([2]; listed as 4-ヨード体) was “抗がん活性も示した” and the “cancer cell selectivity of growth inhibition and cytotoxicity (in words)” value [2] was “がん細胞選択性は低下していた”.

CCn1c2ccccc2c2cc(C=O)ccc21 [Y-R1, N-ethylcarbazole-3-carboxaldehyde, reference compound] was tested, and the “cancer cell selectivity of growth inhibition and cytotoxicity (in words)” value [2] was “そのような効果は認められなかった”.

CCn1c2ccccc2c2cc(/C=N/NC(=O)c3ccc(O)cc3O)ccc21 [(E)-N'-((9-エチル-9H-カルバゾール-3-イル)メチレン)-2,4-ジヒドロキシベンゾヒドラジド] was tested, and the “toxicity toward certain cancer cell lines (in words)” value ([2]; certain cancer cell lines, not specified) was “ある種のがん細胞株に対する毒性が低下する”.
